Laboratory results from EP1082099B1, “SURFACTANT FOR USE IN EXTERNAL PREPARATIONS FOR SKIN AND EXTERNAL PREPARATION FOR SKIN CONTAINING THE SAME” (Showa Denko K K, priority 1998, dated 1999).

Columns and labels:
[1] = Skin penetration test of methylparaben through hairless mouse skin (two-chamber); assay type: in vitro ADME; conditions: Example 2; donor side phosphate buffer pH 7 with stated composition; after 5 hours
Procedure: One (donor side) of two chambers separated by a hairless mouse skin was filled with a phosphate buffer (pH 7) having dissolved therein a substance having the composition described in Table 3 and the other (receiver side) was filled with a phosphate buffer solution (pH 7). After 5 hours, the concentration of methylparaben on the receiver side was measured. […] As will be apparent from the results, surfactin suppressed the skin penetration of skin-irritating substances.
(§1) One (donor side) of two chambers separated by a hairless mouse skin was filled with a cosmetic having the composition described in Table 6 and the other (receiver side) was filled with a phosphate buffer solution (pH 7). After 5 hours, the concentration of methylparaben on the receiver side was measured.
as §1, with “14” for “6”

[2] = system: three-dimensional skin model; assay: Skin irritation test: MTT cytotoxicity on three-dimensional cultured skin model; assay type: cell-based; conditions: test substance in PBS pH 7, 1 hour exposure, 16 hours incubation, read from graph
Procedure: Using a three-dimensional skin model (trade name: Three-dimensional cultured skin model, manufactured by Gunze), skin irritation tests were performed. […] The test substances were adjusted with PBS (Phosphate Buffer Saline, pH 7) so that they were in various concentrations. To the thus-adjusted test substances was exposed the skin model for 1 hour. Thereafter, the test substances were washed and incubated for 16 hours in a medium attached to the above-described three-dimensional skin model. After the incubation, a solution of MTT (3-(4,5-dimethylthiazol-2-yl)-2,5-diphenyltetrazolium bromide) was added and pigments were extracted with isopropanol rendered acidic with hydrochloric acid, followed by measurement of absorbance at a wavelength of 570 nm. […] This value was called B. The MTT solution was added to PBS and extraction was performed similarly. Absorbance of the extract measured at a wavelength of 570 nm was named C. From these values was calculated cytotoxicity. Calculation was made according to the following equation. Cytotoxicity (%) = (1-(A-c)/(B-C)) x 100 [formula]
Plotting the concentration of a test substance on the axis of abscissa and cytotoxicity on the axis of ordinate, a graph was obtained, from which the concentration of a test compound at 50% cytotoxicity was read.

Row | Concentration of methylparaben of receiver [1] [ppm] | SMILES | Concentration of surfactant at 50% cytotoxicity [2] [%]
1 | 5.7 | COC(=O)c1ccc(O)cc1 [0.1% Methylparaben, Methylparaben] | 
2 |  | CCCCCCCCCCCCOS(=O)(=O)[O-].[Na+] [SDS, sodium dodecylsulfate, reference compound] | 0.2
